Experimental data from ChEMBL document CHEMBL2034954, “Synthesis and antimycobacterial activity of novel 1,3-dimethylisocyanurate derivatives” (Eur J Med Chem, 2012).
The source made the active and inactive calls. The rule behind the calls is not given here.

How the values were obtained:
[1] = test system: Mycobacterium tuberculosis; test: Antitubercular activity against multidrug-resistant Mycobacterium tuberculosis clinical isolate at 1 ug/mL by radiometric growth assay; type: functional, organism-based
[2] = test system: Mycobacterium tuberculosis; test: Antitubercular activity against multidrug-resistant Mycobacterium tuberculosis clinical isolate at 10 ug/mL by radiometric growth assay; type: functional, organism-based
[3] = test system: Mycobacterium tuberculosis; test: Antitubercular activity against multidrug-resistant Mycobacterium tuberculosis clinical isolate at 40 ug/mL by radiometric growth assay; type: functional, organism-based
[4] = test system: Mycobacterium tuberculosis; test: Antitubercular activity against multidrug-resistant Mycobacterium tuberculosis clinical isolate at 80 ug/mL by radiometric growth assay; type: functional, organism-based
[5] = test system: Mycobacterium tuberculosis; test: Antitubercular activity against multidrug-resistant Mycobacterium tuberculosis clinical isolate assessed as number of colonies at 10 ug/mL by radiometric growth assay; type: functional
[6] = test system: Mycobacterium tuberculosis; test: Antitubercular activity against multidrug-resistant Mycobacterium tuberculosis clinical isolate assessed as number of colonies at 1 ug/mL by radiometric growth assay; type: functional

NNC(=O)c1ccncc1 [ISONIAZID] was tested, and the Activity [1] was “inactive” and the Activity [2] was “inactive”.

For CO[C@H]1/C=C/O[C@@]2(C)Oc3c(C)c(O)c4c(O)c(c(/C=N/N5CCN(C)CC5)c(O)c4c3C2=O)NC(=O)/C(C)=C\C=C\[C@H](C)[C@H](O)[C@@H](C)[C@@H](O)[C@@H](C)[C@H](OC(C)=O)[C@@H]1C, the Activity [3] was “inactive” and the Activity [4] was “inactive”.

CC1COc2c(N3CCN(C)CC3)c(F)cc3c(=O)c(C(=O)O)cn1c23 (configuration not stated) was tested, and the Activity [2] was “inactive”.

Cn1c(=O)n(C)c(=O)n(CCCCC[S+]([O-])CC(=O)NN)c1=O (configuration not stated) showed a CFU [5] of 10 and a CFU [6] of 15.
